The text below walks through data of publication PMC5626031, “Differential inhibition of adenylylated and deadenylylated forms of M. tuberculosis glutamine synthetase as a drug discovery platform” (PLoS ONE, 2017).

pIC50: −log10 of the molar value. Values joined by “and” are separate entries in the source; they are usually repeats but may differ in a detail not shown here. Identical values can stand only once. “Also recorded” adds a separate entry of the source. Like-named read-outs stand apart in the source and are kept apart here.

The target in assay [1] is T1, deadenylylated MtbGS (Mycobacterium tuberculosis, UniProt P9WN39).
T1 construct: made in house; host or cells: E. coli YMC11E with pTBSK
Briefly: biochemical. Particulars: pre-incubation protocol; for inhibition at 10 µM: 10μM final concentration; for pIC50: dose-response assay, single assay values. Details: species or system M. tuberculosis.

The target in assay [2] is T2, adenylylated MtbGS (Mycobacterium tuberculosis, UniProt P9WN39).
T2 construct: made in house; host or cells: E. coli YMC11E(DE3) with pTBSK and pTBglnE
The experiment in a line: biochemical. The assay is classed as biochemical, M. tuberculosis. The conditions noted are these: for inhibition at 10 µM: 10μM final concentration; for pIC50: dose-response assay; for Selectivity for adenylylated vs deadenylylated MtbGS: from % inhibition at 10μM of both enzyme forms.

Assay [3] has as its system M.tb H37Rv reference strain. Briefly: BACTEC 460TB assay of mycobacterial growth. It counts as cell-based, Mycobacterium tuberculosis. The conditions noted are these: for Activity against M.tb H37Rv, in words: 100 μM final concentration; for Growth inhibition of M.tb H37Rv (percentage of growth index): 100 μM, day 6 of incubation, relative to control cultures.
The subject of assay [4] is M.tb H37Rv reference strain (ATCC 25618). On the set-up: method as in PMID 9145860. Particulars: approximately 10x higher than the minimal inhibitory concentrations; cited from earlier work.
Assay [5] relates to M.tb (Beijing220) clinical isolate. The conditions noted are these: cited from earlier work.
The test system of assay [6] is M.tb (Beijing220) in mouse bone-marrow derived macrophages. The experiment in a line: Intracellular M.tb in mouse bone-marrow derived macrophage assay. The assay is classed as cell-based, Mycobacterium tuberculosis. Particulars: for Activity against intracellular M.tb (Beijing220), in words / Percentage killing of intracellular M.tb (Beijing220), Fig 7: 100 μM; for Activity against intracellular M.tb (Beijing220), in words: Fig 7; for Percentage killing of intracellular M.tb (Beijing220), Fig 7: MOI 2:1, drug on day 4 post infection, harvest day 2 post drug, first experiment (8 selective compounds).

The mark [7] stands for this setting: average over the 4 screens, read-out: Deadenylated Mtb GS (% inhibition) AVG.
[8] abbreviates: screen 1, read-out: Deadenylated Mtb GS (% inhibition) Screen 1.
Setting [9] is: screen 2, read-out: Deadenylated Mtb GS (% inhibition) Screen 2.
[10] abbreviates: screen 3, read-out: Deadenylated Mtb GS (% inhibition) Screen 3.
[11] abbreviates: screen 4, read-out: Deadenylated Mtb GS (% inhibition) Screen 4.
[12] abbreviates: pre-incubation protocol, average over the 4 screens, read-out: Adenylated Mtb GS (% inhibition) AVG.
The mark [13] stands for this setting: pre-incubation protocol, screen 1, read-out: Adenylated Mtb GS (% inhibition) Screen 1.
Setting [14] is: pre-incubation protocol, screen 2, read-out: Adenylated Mtb GS (% inhibition) Screen 2.
Setting [15] is: pre-incubation protocol, screen 3, read-out: Adenylated Mtb GS (% inhibition) Screen 3.
The mark [16] stands for this setting: pre-incubation protocol, screen 4, read-out: Adenylated Mtb GS (% inhibition) Screen 4.
The mark [17] stands for this setting: pre-incubation protocol, single assay values, read-out: IC50, adenylylated MtbGS.
Where [18] appears, read: enzyme form not given, read-out: IC50 concentration, MtbGS.

T1 sequence (P9WN39 2-478 limits assumed): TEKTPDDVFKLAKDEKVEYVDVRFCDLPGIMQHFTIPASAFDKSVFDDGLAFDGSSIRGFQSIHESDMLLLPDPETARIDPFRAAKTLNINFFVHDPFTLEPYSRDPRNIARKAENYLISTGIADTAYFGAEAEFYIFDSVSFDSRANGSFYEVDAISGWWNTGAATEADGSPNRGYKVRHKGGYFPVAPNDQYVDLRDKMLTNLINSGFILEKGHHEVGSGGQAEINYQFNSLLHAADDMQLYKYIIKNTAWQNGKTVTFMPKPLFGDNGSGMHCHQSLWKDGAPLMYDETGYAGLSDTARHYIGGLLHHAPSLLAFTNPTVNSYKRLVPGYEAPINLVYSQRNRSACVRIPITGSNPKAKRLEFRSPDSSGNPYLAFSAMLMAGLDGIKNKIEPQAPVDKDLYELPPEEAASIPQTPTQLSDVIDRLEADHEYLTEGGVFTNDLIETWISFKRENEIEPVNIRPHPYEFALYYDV
T2 sequence (P9WN39 2-478 limits assumed): as above

The term inhibition denotes the percentage by which the read-out fell short of the control. Consider `CP(=O)(O)CC[C@H](N)C(=O)O` [PhosT, phosphinotricin, reference compound], for which the inhibition at 10 µM in assay [1] (setting [7]) was 100%; in assay [1] (setting [8]), 100%; in assay [1] (setting [9]), 98%; in assay [1] (setting [10]) it was 100%; in assay [1] (setting [11]), 100%; in assay [2] (setting [12]), 98%. The inhibition at 10 µM in assay [2] (setting [13]) was 100%; in assay [2] (setting [14]) it was 95%; in assay [2] (setting [15]) it was 97%; in assay [2] (setting [16]) it was 100%. Further, the pIC50 is 6.08 in assay [1] and 7.80 in assay [2] (setting [17]).

On to `OCCNc1cc(N2CCCC2)ncn1` [Compound 5024], for which, in assay [3], the “Activity against M.tb H37Rv, in words” value is recorded as “no activity”. For the same compound, the inhibition at 10 µM was 47% in assay [1] (setting [7]); 49% in assay [1] (setting [8]); 44% in assay [1] (setting [9]); 52% in assay [1] (setting [10]); 44% in assay [1] (setting [11]); 43% in assay [2] (setting [12]). Besides, the inhibition at 10 µM was 46% in assay [2] (setting [13]), 48% in assay [2] (setting [14]), 43% in assay [2] (setting [15]) and 36% in assay [2] (setting [16]).

Consider `NC(CCS(=O)(=O)O)C(=O)O` (stereo not shown) [Compound 5], for which the inhibition at 10 µM in assay [1] (setting [7]) turned out to be 2%; in assay [1] (setting [8]), 0%; in assay [1] (setting [9]), 0%; in assay [1] (setting [10]), 6%; in assay [1] (setting [11]), 0%; in assay [2] (setting [12]), 38%. Also, the inhibition at 10 µM is 48% in assay [2] (setting [13]), 33% in assay [2] (setting [14]), 40% in assay [2] (setting [15]) and 29% in assay [2] (setting [16]).

Take `NNC(=O)c1ccncc1` [isoniazid]: the “Breakpoint concentration to which the H37Rv strain was sensitive” value in assay [4] was 0.25 µg/mL. The “Susceptibility of the Beijing220 clinical isolate” value in assay [5] is “resistant”.

Consider `Cc1nc(N)cc(C[n+]2csc(CCOP(=O)(O)O)c2C)n1` [Compound 5016], for which the “Activity against M.tb H37Rv, in words” value in assay [3] is recorded as “no activity”. The inhibition at 10 µM is 11% in assay [1] (setting [7]); 7% in assay [1] (setting [8]); 19% in assay [1] (setting [9]); 3% in assay [1] (setting [10]); 13% in assay [1] (setting [11]); 43% in assay [2] (setting [12]). Moreover, the inhibition at 10 µM in assay [2] (setting [13]) amounted to 51%; in assay [2] (setting [14]), 43%; in assay [2] (setting [15]) it was 46%; in assay [2] (setting [16]) it was 30%.

Regarding `O=C(O)c1ccncc1` [Compound 5002], in assay [3], the “Activity against M.tb H37Rv, in words” value was “no activity”. For the same compound, the inhibition at 10 µM came out at 8% in assay [1] (setting [7]); 0% in assay [1] (setting [8]); 10% in assay [1] (setting [9]); 8% in assay [1] (setting [10]); 14% in assay [1] (setting [11]); 45% in assay [2] (setting [12]). The inhibition at 10 µM is 68% in assay [2] (setting [13]), 40% in assay [2] (setting [14]), 38% in assay [2] (setting [15]) and 35% in assay [2] (setting [16]).

For the compound `Nc1nc(O)c2ccccc2n1` [Compound 12004], the “Activity against M.tb H37Rv, in words” value in assay [3] is “no activity”. Also, the inhibition at 10 µM is 42% in assay [1] (setting [7]); 50% in assay [1] (setting [8]); 43% in assay [1] (setting [9]); 38% in assay [1] (setting [10]); 38% in assay [1] (setting [11]); 34% in assay [2] (setting [12]). Also, the inhibition at 10 µM in assay [2] (setting [13]) amounted to 39%; in assay [2] (setting [14]), 32%; in assay [2] (setting [15]), 33%; in assay [2] (setting [16]), 30%.

As for `O=NN(Cc1ccccc1)c1cc(N2CCCC2)ncn1` [Compound 5045], the “Growth inhibition of M.tb H37Rv (percentage of growth index)” value in assay [3] amounted to 98%. The inhibition at 10 µM was 48% in assay [1] (setting [7]); 44% in assay [1] (setting [8]); 45% in assay [1] (setting [9]); 54% in assay [1] (setting [10]); 48% in assay [1] (setting [11]); 0% in assay [2] (setting [12]). For the same compound, the inhibition at 10 µM in assay [2] (setting [13]), in assay [2] (setting [14]), in assay [2] (setting [15]) and in assay [2] (setting [16]) was 0% each time. Moreover, the “Percentage killing of intracellular M.tb (Beijing220), Fig 8” value in assay [6] (100 μM for 2 days, second experiment at 10, 50 and 100 μM) was 73%. The “Activity against intracellular M.tb (Beijing220), in words” value (shortened to “Activity against intracellular M.tb”) in assay [6] is reported as “moderate activity”. Further, the “Percentage killing of intracellular M.tb (Beijing220), Fig 7” value (shortened to “Percentage killing … Fig 7”) in assay [6] was determined as 64%. Moreover, the “Selectivity for adenylylated vs deadenylylated MtbGS” value (“Selectivity for adenylylated” for short) in assay [2] was “significant selectivity for the deadenylylated MtbGS; also recorded: deadenylylated selective; also recorded: specific to the de-adenylylated form of GS”.

For `Cc1cccc(C)c1Nc1c(C(C)C)nc2ccccn12` [Compound 10057], in assay [3], the “Growth inhibition of M.tb H37Rv (percentage of growth index)” value is recorded as 53%. Moreover, the inhibition at 10 µM was 59% in assay [1] (setting [7]); 67% in assay [1] (setting [8]); 62% in assay [1] (setting [9]); 47% in assay [1] (setting [10]); 58% in assay [1] (setting [11]); 99% in assay [2] (setting [12]). For the same compound, the inhibition at 10 µM in assay [2] (setting [13]) was 100%; in assay [2] (setting [14]), 99%; in assay [2] (setting [15]), 98%; in assay [2] (setting [16]), 100%. Also, the “Activity against intracellular M.tb” value in assay [6] is listed as “moderate activity”. For the same compound, in assay [6], the “Percentage killing … Fig 7” value is reported as 65%. In addition, the pIC50 is 5.45 and 4.81 in assay [2] (setting [17]); more than 4.00 in assay [2] (setting [18]). The “Selectivity for adenylylated” value in assay [2] is given as “GS-adenylylated specific”.

Consider `CC[C@@H](CO)NCCN[C@@H](CC)CO` [ethambutol], for which the “Breakpoint concentration to which the H37Rv strain was sensitive” value in assay [4] was 9.4 µg/mL.

Turning to `Nc1nc(N)c(NC(=O)c2ccccc2)c(O)n1` [Compound 5009], the “Activity against M.tb H37Rv, in words” value in assay [3] is “no activity”. Also, the inhibition at 10 µM in assay [1] (setting [7]) amounted to 47%; in assay [1] (setting [8]), 57%; in assay [1] (setting [9]) it was 41%; in assay [1] (setting [10]), 44%; in assay [1] (setting [11]) it was 44%; in assay [2] (setting [12]) it was 40%. Moreover, the inhibition at 10 µM in assay [2] (setting [13]) came out at 37%; in assay [2] (setting [14]) it was 50%; in assay [2] (setting [15]) it was 50%; in assay [2] (setting [16]), 22%.

For the compound `COc1ccc(-c2nc3ccccn3c2Nc2c(C)cccc2C)cc1OC` [Compound 10059], the inhibition at 10 µM in assay [1] (setting [7]) is 44%; in assay [1] (setting [8]) it was 49%; in assay [1] (setting [9]), 48%; in assay [1] (setting [10]), 36%; in assay [1] (setting [11]), 43%; in assay [2] (setting [12]) it was 91%. Also, the inhibition at 10 µM in assay [2] (setting [13]) came to 82%; in assay [2] (setting [14]), 99%; in assay [2] (setting [15]) it was 82%; in assay [2] (setting [16]), 100%. Also, the pIC50 in assay [1] was 4.88 and 4.77; in assay [2] (setting [18]), more than 4.00. In assay [6], the “Activity against intracellular M.tb” value is “moderate activity”. The “Percentage killing … Fig 7” value in assay [6] is recorded as 54%. Besides, the “Selectivity for adenylylated” value in assay [2] is recorded as “GS-adenylylated specific”.

For the compound `O=C1NC(C(=O)O)=C(C(=O)O)C(c2ccc([N+](=O)[O-])cc2)N1` (stereo not shown) [Compound 5012], the “Activity against M.tb H37Rv, in words” value in assay [3] is on record as “no activity”. In addition, the inhibition at 10 µM in assay [1] (setting [7]) came to 15%; in assay [1] (setting [8]), 14%; in assay [1] (setting [9]), 16%; in assay [1] (setting [10]) it was 4%; in assay [1] (setting [11]), 24%; in assay [2] (setting [12]), 40%. Further, the inhibition at 10 µM in assay [2] (setting [13]) amounted to 55%; in assay [2] (setting [14]), 31%; in assay [2] (setting [15]), 32%; in assay [2] (setting [16]), 42%.

For `c1ccc(CNc2cc(N3CCCC3)ncn2)cc1` [Compound 5029], in assay [3], the “Growth inhibition of M.tb H37Rv (percentage of growth index)” value turned out to be 66%. The inhibition at 10 µM stood at 7% in assay [1] (setting [7]); 5% in assay [1] (setting [8]); 8% in assay [1] (setting [9]); 7% in assay [1] (setting [10]); 9% in assay [1] (setting [11]); 60% in assay [2] (setting [12]). The inhibition at 10 µM was 79% in assay [2] (setting [13]), 46% in assay [2] (setting [14]), 56% in assay [2] (setting [15]) and 60% in assay [2] (setting [16]). In assay [6], the “Activity against intracellular M.tb” value was “moderate activity”. In addition, the “Percentage killing … Fig 7” value in assay [6] is reported as 67%. Also, the “Selectivity for adenylylated” value in assay [2] was “GS-adenylylated specific”.
